Reference: patent publication EP0791591B1, “Benzothiophenes, formulations containing same, and methods for their préparation” (ELI LILLY AND COMPANY, priority 1996, dated 1997)
Where two headings read alike, the source gives them in different places. Marks after values point to notes of the source that are not given here.

Assays:
[1] = pKa determination
[2] = tested on: Serum cholesterol; test: Serum cholesterol analysis in ovariectomized rats; assay type: in vivo, Sprague Dawley rats; settings: oral, daily for 4 days, decrease versus ovariectomized controls
Excerpt: (§1) Seventy-five day old female Sprague Dawley rats (weight range of 200 to 225g) are obtained from Charles River Laboratories (Portage, MI). The animals are either bilaterally ovariectomized (OVX) or exposed to a Sham surgical procedure at Charles River Laboratories, and then shipped after one week. Upon arrival, they are housed in metal hanging cages in groups of 3 or 4 per cage and have ad libitum access to food (calcium content approximately 0.5%) and water for one week. Room temperature is maintained at 22.2° ± 1.7° C with a minimum relative humidity of 40%. The photoperiod in the room is 12 hours light and 12 hours dark.
(§2) Dosing Regimen Tissue Collection. After a one week acclimation period (therefore, two weeks post-OVX) daily dosing with test compound is initiated. 17α-ethynyl estradiol or the test compound is given orally, unless otherwise stated, as a suspension in 1% carboxymethylcellulose or dissolved in 20% cyclodextrin. Animals were dosed daily for 4 days. Following the dosing regimen, animals are weighed and anesthetized with a ketamine: Xylazine (2:1, V:V) mixture and a blood sample is collected by cardiac puncture. The animals are then sacrificed by asphyxiation with CO2, the uterus is removed through a midline incision, and a wet uterine weight is determined.
Cholesterol Analysis. Blood samples are allowed to clot at room temperature for 2 hours, and serum is obtained following centrifugation for 10 minutes at 3000 rpm. Serum cholesterol is determined using a Boehringer Mannheim Diagnostics high performance cholesterol assay. Briefly the cholesterol is oxidized to cholest-4-en-3-one and hydrogen peroxide. The hydrogen peroxide is then reacted with phenol and 4-aminophenazone in the presence of peroxidase to produce a p-quinone imine dye, which is read spectrophotemetrically at 500 nm. Cholesterol concentration is then calculated against a standard curve. The entire assay is automated using a Biomek Automated Workstation.

[3] = tested on: Uterine Eosinophil Peroxidase (EPO); settings: rat, in vivo
Excerpt: as §1, §2
(§3) Uterine Eosinophil Peroxidase (EPO) Assay. Uteri are kept at 4° C until time of enzymatic analysis. The uteri are then homogenized in 50 volumes of 50 mM Tris buffer (pH - 8.0) containing 0.005% Triton X-100. Upon addition of 0.01% hydrogen peroxide and 10 mM O-phenylenediamine (final concentrations) in Tris buffer, increase in absorbance is monitored for one minute at 450 nm. The presence of eosonophils in the uterus is an indication of estrogenic activity of a compound. The maximal velocity of a 15 second interval is determined over the initial, linear portion of the reaction curve.

[4] = tested on: ovariectomized rats; test: Osteoporosis Test Procedure: 35-day ovariectomized rat, femur density; assay type: in vivo, Sprague Dawley rats; settings: oral, in 20% hydroxypropyl β-cyclodextrin, daily for 35 days; result in words
Experimental: Following the General Preparation Procedure, infra, the rats are treated daily for 35 days (6 rats per treatment group) and sacrificed by carbon dioxide asphyxiation on the 36th day. The 35 day time period is sufficient to allow maximal reduction in bone density, measured as described herein. At the time of sacrifice, the uteri are removed, dissected free of extraneous tissue, and the fluid contents are expelled before determination of wet weight in order to confirm estrogen deficiency associated with complete ovariectomy. […] The uteri are then placed in 10% neutral buffered formalin to allow for subsequent histological analysis. The right femurs are excised and digitilized x-rays generated and analyzed by an image analysis program (NIH image) at the distal metaphysis. The proximal aspect of the tibiae from these animals are also scanned by quantitative computed tomography. In accordance with the above procedures, compounds of the present invention and ethynyl estradiol (EE2) in 20% hydroxypropyl β-cyclodextrin are orally administered to test animals.

[5] = tested on: ovariectomized rats; test: Uterine weight in ovariectomized rat post-menopausal model, 4 days oral dosing; settings: daily for 4 days, increase versus ovariectomized controls
Excerpt: as §1, §2

[6] = tested on: Uterine Eosinophil Peroxidase (EPO); test: Uterine Eosinophil Peroxidase (EPO) Assay in ovariectomized rats; settings: for Uterine Eosinophil (Vmax): oral, daily for 4 days, eosinophil peroxidase Vmax
Excerpt: as §1, §2, §3

[7] = tested on: MCF-7 breast adenocarcinoma cells (ATCC HTB 22); test: MCF-7 Proliferation Assay (tritiated thymidine); assay type: cell-based; settings: Homo sapiens, MCF7; MCF-7 cells, 48 hours with drug, tritiated thymidine pulse 4 hours
Experimental: MCF-7 breast adenocarcinoma cells (ATCC HTB 22) are maintained in MEM (minimal essential medium, phenol red-free, Sigma, St. Louis, MO) supplemented with 10% fetal bovine serum (FBS) (V/V), L-glutamine (2 mM), sodium pyruvate (1 mM), HEPES {(N-[2-hydroxyethyl]piperazine-N'-[2-ethanesulfonic acid]10 mM}, non-essential amino acids and bovine insulin (1 ug/mL) (maintenance medium). Ten days prior to assay, MCF-7 cells are switched to maintenance medium supplemented with 10% dextran coated charcoal stripped fetal bovine serum (DCC-FBS) assay medium) in place of 10% FBS to deplete internal stores of steroids. MCF-7 cells are removed from maintenance flasks using cell.dissociation medium (Ca++/Mg++ free HBSS (phenol red-free) supplemented with 10 mM HEPES and 2 mM EDTA). Cells are washed twice with assay medium and adjusted to 80,000 cells/mL. Approximately 100 µL (8,000 cells) are added to flat-bottom microculture wells (Costar 3596) and incubated at 37° C in a 5% CO2 humidified incubator for 48 hours to allow for cell adherence and equilibration after transfer. Serial dilutions of drugs or DMSO as a diluent control are prepared in assay medium and 50 µL transferred to triplicate microcultures followed by 50 µL assay medium for a final volume of 200 µL. […] Samples are counted by liquid scintillation using a Wallac BetaPlace β counter. […]

[8] = physchem; settings: 66% dmf

Molecule `[O-][N+]1(CCOc2ccc(Cc3c(-c4ccc(O)cc4)sc4cc(O)ccc34)cc2)CCCCC1` [Example 7, [2-(4-Hydroxyphenyl)-6-hydroxybenzo[b]thien-3-yl][4-[2-(1-piperidinyl)ethoxy]phenyl]methane N-oxide] has a pKa [1] of 6.49.

With “[2-(4-n-Butylsulfonoylphenyl)-6-n-butylsulfonoylbenzo[b]thien-3-yl][4-[2-(1-piperidinyl)ethoxy]phenyl]methanone N-oxide [Example 5]” the “Serum Cholest. % Dec.” value ([2]; 1.0 mg/kg) was 74.9* % and the “Uterine Eosinophil (Vmax)” value [3] was 4.7.

With `O=C(c1ccc(OCC[N+]2([O-])CCOCC2)cc1)c1c(-c2ccc(O)cc2)sc2cc(O)ccc12` [Example 4, [2-(4-Hydroxyphenyl)-6-hydroxybenzo[b]thien-3-yl][4-[2-(1-morpholino)ethoxy]phenyl]methanone N-oxide] the “Serum Cholest. % Dec.” value ([2]; 1.0 mg/kg) was 56.2* % and the “Uterine Eosinophil (Vmax)” value [3] was 4.1.

In the case of `C#C[C@]1(O)CC[C@H]2[C@@H]3CCc4cc(O)ccc4[C@H]3CC[C@@]21C` [EE2, 17α-ethynyl estradiol, reference compound], the “bone loss (femur density)” value [4] is reported as “prevented this loss”, the “Serum Cholest. % Dec.” value ([2]; 0.1 mg/kg) is reported as 87.3* % and the “Uterine Weight % Inc” value ([5]; 0.1 mg/kg) is reported as 207.5* %. For the same molecule, the “Uterine Eosinophil (Vmax)” value ([6]; 0.1 mg/kg) was 205.8* and the “eosinophil infiltration into the uterus” value ([6]; result in words, stromal layer of ovariectomized rat uteri) was “substantial and expected increase”.

With `O=C(c1ccc(OCC[N+]2([O-])CCCCC2)cc1)c1c(-c2ccc(O)cc2)sc2cc(O)ccc12` [Example 1, [2-(4-Hydroxyphenyl)-6-hydroxybenzo[b]thien-3-yl][4-[2-(1-piperidinyl)ethoxy]phenyl]methanone N-oxide] the “Serum Cholest. % Dec.” value ([2]; 0.1 mg/kg) was 44.9* %, the “Serum Cholest. % Dec.” value ([2]; 1.0 mg/kg) was 68.7* % and the “Serum Cholest. % Dec.” value ([2]; 10.0 mg/kg) was 70.3* %. For the same molecule, the pKa ([1]; 66% dmf) was 6.28, the “Uterine Weight % Inc” value ([5]; 0.1 mg/kg) was 31.2* % and the “Uterine Weight % Inc” value ([5]; 1.0 mg/kg) was 29.6* %. For the same molecule, the “Uterine Weight % Inc” value ([5]; 10.0 mg/kg) was 8.3%, the IC50 [7] was roughly 1 µM and the “Uterine Eosinophil (Vmax)” value ([6]; 0.1 mg/kg) was 4.4. The “Uterine Eosinophil (Vmax)” value ([6]; 1.0 mg/kg) was 4.6 and the “Uterine Eosinophil (Vmax)” value ([6]; 10.0 mg/kg) was 2.5.

`[O-][N+]1(CCOc2ccc(C(O)c3c(-c4ccc(O)cc4)sc4cc(O)ccc34)cc2)CCCCC1` (stereo not shown) [Example 6] gave a pKa [1] of 6.41.

For `CC[N+]([O-])(CC)CCOc1ccc(C(=O)c2c(-c3ccc(O)cc3)sc3cc(O)ccc23)cc1` [Example 3, [2-(4-Hydroxyphenyl)-6-hydroxybenzo[b]thien-3-yl][4-[2-(N, N-diethyl)ethoxy]phenyl]methanone N-oxide], the “Serum Cholest. % Dec.” value ([2]; 1.0 mg/kg) was 64.2* %, the pKa [8] was 6.15 and the “Uterine Eosinophil (Vmax)” value [3] was 21.7*.

For `COc1ccc(-c2sc3cc(OC)ccc3c2C(=O)c2ccc(OCC[N+]3([O-])CCCCC3)cc2)cc1` [Example 2], the “Serum Cholest. % Dec.” value ([2]; 1.0 mg/kg) was 65.7* %, the pKa [8] was 6.39 and the “Uterine Eosinophil (Vmax)” value [3] was 11.2.
